# Patent publication US7572770B2, “Use of an interleukin 1 receptor antagonist and/or pyrrolidinedithiocarbamate for the treatment or prophylaxis of type 2 diabetes” (University of Zurich, priority 2002, dated 2009)
# Key:
# [1] = test system: IL-1Ra; experiment: IL-1Ra expression and release in human islets; format: cell-based; conditions: for IL-1Ra released into the culture medium and IL-1Ra mRNA: 10 to 500 nM leptin
# Procedure: Islet isolation and cell culture. Islets were isolated from pancreases of ten organ donors at the Department of Surgery, University of Geneva Medical Center, as described (32-34). The islet purity was >95%, as judged by dithizone staining (if this degree of purity was not primarily achieved by routine isolation, islets were handpicked). […] For long-term in vitro studies, the islets were cultured on extracellular matrix-coated plates derived from bovine corneal endothelial cells (Novamed Ltd., Jerusalem, Israel), allowing the cells to attach to the dishes and spread, preserving their functional integrity (7;35). Islets were cultured in CMRL 1066 medium containing 100 U/ml penicillin, 100 μg/ml streptomycin and 10% fetal calf serum (Invitrogen Corporation, Paisley, U.K.), hereafter referred to as culture medium. Two days after plating, when most islets were attached and began to flatten, the medium was changed to culture medium containing 5.5, 11.1 or 33.3 mM glucose. In some experiments, islets were additionally cultured with 5, 10 or 500 nM rh leptin (PeproTech, London, UK), 500 ng/ml rh IL-1Ra (R&D Systems Inc., Minneapolis, Minn.) or 50 nM small interfering RNA (siRNA) as described below.
# RNA interference. RNAs of 21 nucleotides, designed to target human IL-1Ra (5′AUCUGCAGAGGCCUCCGCAtt3′/5′UGCGGAGGCCUCUGCAGAUtt3′) and scrambled siRNA were synthesized by Ambion (Austin, Tex.). siRNAs were transfected using SiPortAmine™ according to the manufacturer's instructions (Ambion).
# Detection of IL-1Ra and IL-1β expressing cells. Pancreases from routine necropsies were immersion-fixed in formalin, followed by paraffin embedding. In parallel, isolated human were cultured in a suspension for 48 hours and exposed to 10 nM leptin or 33.3 mM glucose, islets were fixed in Bouin solution for 15 min, resuspended in 40 μl of 2% melted agarose in PBS (40° C.), followed by rapid centrifugation and paraffin embedding. Sections were deparaffinized, rehydrated and then incubated in methanol for 4 min. Human islets cultured on extracellular matrix for 4 days were washed in PBS, fixed in 4% paraformaldehyde (30 min, room temperature) followed by permeabilization with 0.5% triton X-100 (4 min, room temperature). Pancreas and islet sections and cultured cells were double-labeled for IL-1Ra or IL-1β and insulin, CD68, glucagon or somatostatin by 1 h of exposure to 10% bovine serum albumin followed by incubation (1 h, 37° C.) with biotinylated goat anti-IL-1Ra or mouse anti-IL-1β antibodies (R&D Systems Inc.). Detection was performed using cy3-(Jackson, ImMunoResearch Laboratories, West Grove, Pa.) or cy2-(Transduction Lab., Lexington, Ky.) conjugated streptavidin. […]
# [2] = test system: human islets; experiment: Insulin release and content of human islets; format: cell-based
# Procedure: Islet isolation and culture. Islets were isolated from pancreases of eleven organ donors at the Department of Surgery, University of Geneva Medical Center, as described (32-34). The islet purity was >95%, as judged by dithizone staining (if this degree of purity was not primarily achieved by routine isolation, islets were handpicked). […] For long-term in vitro studies, the islets were cultured on extracellular matrix-coated plates derived from bovine corneal endothelial cells (Novamed Ltd., Jerusalem, Israel), allowing the cells to attach to the dishes and spread, preserving their functional integrity (7;35). Islets were cultured in CMRL 1066 medium containing 100 U/ml penicillin, 100 μg/ml streptomycin and 10% fetal calf serum (Gibco, Gaithersburg, Md.), hereinafter referred to as culture medium. Two days after plating, when most islets were attached and began to flatten, the medium was changed to culture medium containing 5.5, 11.1 or 33.3 mM glucose. In some experiments, islets were additionally cultured with 2 ng/ml recombinant human IL-1β, 1000 U/ml recombinant human IFNγ (ReproTech EC Ltd, London, UK), 500 ng/ml IL-1β receptor antagonist (IL-1Ra) (R&D Systems Inc., Minneapolis, Minn.), 1 ng/ml membrane bound Fas-ligand (FasL) (36) (upstate biotechnology, Lake Placid, N.Y.) or with 100 μM pyrrolidinedithiocarbamate (PDTC; Sigma; 2 h per 2 d of culture).
# Insulin release and content. To determine acute insulin release in response to glucose stimulation, islets were washed in RPMI 1640 medium with 10% FCS and containing 3.3 mM glucose and pre-incubated for 1 h in the same medium. The medium was then discarded and replaced with fresh medium containing 3.3 mM glucose for 1 h for basal secretion, followed by an additional 1 h incubation in medium containing 16.7 mM glucose. Incubates were collected and frozen for insulin assays. […] Insulin was determined by a human insulin RIA kit (CIS bio international, Gif-Sur-Yvette, France).
substance,measurement,setting,value
leptin: rh leptin (PeproTech); protein encoded by the ob gene,IL-1Ra expression in β-cells (double immunostaining),"[1]; 10 nM leptin, 48 hours",decreased IL-1Ra expression in most β-cells
same,IL-1Ra released into the culture medium and IL-1Ra mRNA,[1]; 15 hours,increased
same,IL-1Ra released into the culture medium and IL-1Ra mRNA,[1]; 48 hours,marked decrease
same,IL-1Ra protein (Western blot),"[1]; leptin, 15-hour exposure",decreased IL-1Ra already after a 15-hour exposure
Interleukin 1 receptor antagonist [IL-1Ra],"acute glucose-stimulated insulin release, co-incubation",[2]; 33.3 mM glucose or IL-1β for 4 days plus IL-1Ra or PDTC,partially restored such glucose stimulation
same,insulin content of islets,"[2]; high glucose with IL-1Ra, 4 days",remained unaffected
